From the text: Subjects with a history of HIV-2, hepatitis B and/or C, cirrhosis of the liver or any known active or chronic active liver disease were excluded from the study.
Most AEs were mild or moderate (Grade 1 or Grade 2). […] None of the Grade ≥3 AEs (preferred terms) were reported in more than 1 subject. Table 28 provides an overview of deaths, SAES, AEs, AEs by severity, AEs related to study medication, and AE leading to discontinuation.

O=C1Nc2ccc(Cl)cc2[C@@](C#CC2CC2)(C(F)(F)F)O1 [EFV, efavirenz, reference compound]
0 n: Deaths (All CVC (N = 115), EFV (N = 28)) | AE leading to discontinuation: Aggression (human, in vivo, 48 week) | AE leading to discontinuation: Thinking abnormal (human, in vivo, 48 week) | Subjects with AEs, by worst grade severity: Grade 4 (human, in vivo, 48 week) | AE leading to discontinuation: General disorders and administration site conditions (human, in vivo, 48 weeks) | AE leading to discontinuation: Malaise (human, in vivo, 48 weeks) | Grade 3 or 4 AE: Abdominal pain (human, in vivo, 48 weeks) | Grade 3 or 4 AE: Blindness unilateral (human, in vivo, 48 weeks) | Grade 3 or 4 AE: Blood creatine phosphokinase increased (human, in vivo, 48 weeks) | Grade 3 or 4 AE: Cardiac disorders (human, in vivo, 48 weeks) | Grade 3 or 4 AE: Corneal infection (human, in vivo, 48 weeks) | Grade 3 or 4 AE: Eye disorders (human, in vivo, 48 weeks) | Grade 3 or 4 AE: Gastrointestinal disorders (human, in vivo, 48 weeks) | Grade 3 or 4 AE: General disorders and administration site conditions (human, in vivo, 48 weeks) | Grade 3 or 4 AE: Infections and infestations (human, in vivo, 48 weeks) | Grade 3 or 4 AE: Palpitations (human, in vivo, 48 weeks) | Grade 3 or 4 AE: Pyrexia (human, in vivo, 48 weeks) | Grade 3 or 4 AE: Stress (human, in vivo, 48 weeks) | SAE: Blindness unilateral (human, in vivo, 48 weeks) | SAE: Corneal infection (human, in vivo, 48 weeks) | SAE: Eye disorders (human, in vivo, 48 weeks) | SAE: Gastroenteritis (human, in vivo, 48 weeks) | SAE: Infections and infestations (human, in vivo, 48 weeks)
21%: AEs leading to discontinuation of study medication, % (human, in vivo, 48 weeks)
(11%): Depression, % (human, in vivo, 48 week) | Diarrhoea, % (human, in vivo, 48 week) | Syphilis, % (human, in vivo, 48 week)
(18%): Rash, % (human, in vivo, 48 week)
6 n: Subjects with AEs leading to discontinuation of study medication (human, in vivo, 48 week) | Any AE leading to discontinuation of study drug (human, in vivo, 48 weeks)
27 n: Subjects with ≥1 AE (human, in vivo, 48 weeks)
(21%): Nausea, % (human, in vivo, 48 week) | Abnormal dreams, % (human, in vivo, 48 weeks)
(14%): Insomnia, % (human, in vivo, 48 weeks) | Lymphadenopathy, % (human, in vivo, 48 weeks)
13 n: Subjects with AEs, by worst grade severity: Grade 2 (human, in vivo, 48 week)
(4%): Fatigue, % (human, in vivo, 48 week) | Nasopharyngitis, % (human, in vivo, 48 weeks)
(29%): Dizziness, % (human, in vivo, 48 weeks)
1 n: SAE: Suicidal ideation (All CVC (N = 115), EFV (N = 28), through Week 48) | Grade 3 or 4 AE: Suicidal ideation (All CVC (N = 115), EFV (N = 28; Grade 4 event)) | AE leading to discontinuation: Abnormal dreams (human, in vivo, 48 week) | AE leading to discontinuation: Anxiety (human, in vivo, 48 week) | AE leading to discontinuation: Depression (human, in vivo, 48 week) | AE leading to discontinuation: Dermatitis allergic (human, in vivo, 48 week) | AE leading to discontinuation: Ear and labyrinth disorders (human, in vivo, 48 week) | AE leading to discontinuation: Rash (human, in vivo, 48 week) | AE leading to discontinuation: Tachyphrenia (human, in vivo, 48 week) | AE leading to discontinuation: Tinnitus (human, in vivo, 48 week) | AE leading to discontinuation: Disturbance in attention (human, in vivo, 48 weeks) | AE leading to discontinuation: Eye disorders (human, in vivo, 48 weeks) | AE leading to discontinuation: Gastrointestinal disorders (human, in vivo, 48 weeks) | AE leading to discontinuation: Hypoaesthesia (human, in vivo, 48 weeks) | AE leading to discontinuation: Musculoskeletal and connective tissue disorders (human, in vivo, 48 weeks) | AE leading to discontinuation: Musculoskeletal discomfort (human, in vivo, 48 weeks) | AE leading to discontinuation: Nausea (human, in vivo, 48 weeks) | AE leading to discontinuation: Photophobia (human, in vivo, 48 weeks) | Any Grade 4 AE (human, in vivo, 48 weeks) | Any SAE (human, in vivo, 48 weeks) | Grade 3 or 4 AE: Depression (human, in vivo, 48 weeks) | Grade 3 or 4 AE: Dermatitis allergic (human, in vivo, 48 weeks) | Grade 3 or 4 AE: Ear and labyrinth disorders (human, in vivo, 48 weeks) | Grade 3 or 4 AE: Investigations (human, in vivo, 48 weeks) | Grade 3 or 4 AE: Psychiatric disorders (human, in vivo, 48 weeks) | Grade 3 or 4 AE: Skin and subcutaneous tissue disorders (human, in vivo, 48 weeks) | Grade 3 or 4 AE: Tinnitus (human, in vivo, 48 weeks) | Grade 3 or 4 AE: Weight decreased (human, in vivo, 48 weeks) | SAE: Depression (human, in vivo, 48 weeks) | SAE: Psychiatric disorders (human, in vivo, 48 weeks) | Subjects with serious AEs (human, in vivo, 48 weeks)
20 n: Subjects with AEs related to study medication (human, in vivo, 48 week)
6 subjects: AEs leading to discontinuation of study medication, subjects (human, in vivo, 48 weeks)
(7%): Upper respiratory tract infection, % (human, in vivo, 48 week)
4 n: AE leading to discontinuation: Nervous system disorders (human, in vivo, 48 weeks)
10 n: Subjects with AEs, by worst grade severity: Grade 1 (human, in vivo, 48 week)
3 n: AE leading to discontinuation: Insomnia (human, in vivo, 48 week) | AE leading to discontinuation: Psychiatric disorders (human, in vivo, 48 week) | Subjects with AEs, by worst grade severity: Grade 3 (human, in vivo, 48 week) | Any Grade 3 AE (human, in vivo, 48 weeks)
2 n: AE leading to discontinuation: Skin and subcutaneous tissue disorders (human, in vivo, 48 week) | AE leading to discontinuation: Dizziness (human, in vivo, 48 weeks)
